Test results from article PMC6825211 (Nature Communications, 2019).

Experiments:
[1] = molecular target: T1, MST1 (Homo sapiens, UniProt Q13043); experiment: LanthaScreen Eu kinase binding assay (HTS and dose response); parameters: purchased ThermoFisher; conditions: 1 μM; positive control
T1 sequence (Q13043 1-487): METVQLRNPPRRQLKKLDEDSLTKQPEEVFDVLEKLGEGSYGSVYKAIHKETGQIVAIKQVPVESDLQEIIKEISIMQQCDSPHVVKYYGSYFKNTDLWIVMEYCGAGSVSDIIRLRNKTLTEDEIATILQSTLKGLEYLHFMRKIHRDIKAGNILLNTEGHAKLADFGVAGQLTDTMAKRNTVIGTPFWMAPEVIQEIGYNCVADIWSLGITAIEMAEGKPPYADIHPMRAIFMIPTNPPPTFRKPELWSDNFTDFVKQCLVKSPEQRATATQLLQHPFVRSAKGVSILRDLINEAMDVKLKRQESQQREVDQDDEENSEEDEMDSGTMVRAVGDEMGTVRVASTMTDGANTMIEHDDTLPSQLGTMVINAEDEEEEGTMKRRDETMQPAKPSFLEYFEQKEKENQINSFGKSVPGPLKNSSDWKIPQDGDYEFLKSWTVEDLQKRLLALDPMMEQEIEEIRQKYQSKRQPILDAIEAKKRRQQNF
Description: A total of 39 hits were selected for 9-point dose response confirmation in triplicate, starting at 1 μM followed by 1:5 serial dilution.
Compounds in 1000× DMSO stock solution were dispensed by using Echo555 liquid dispensing system (Labcyte, CA) to 1536-well microplate (Corning, NY). Kinase buffer A (ThermoFisher, MA) was prepared and added to each well. […] Each reagent was added to the microplate in equal volume.

[2] = molecular target: T1, MST1; experiment: Biochemical kinase dose response (Suppl. Fig. 5); conditions: concentrations up to 10 μM
[3] = test system: INS-1E cells; experiment: Western blot of pMST1, caspase-3/PARP cleavage, PDX1, BIM under diabetogenic conditions; type: cell-based, rat; conditions: 10 μM, 24 h
Description: . pThr183), caspase-3 and PARP cleavage, PDX1, tubulin, and actin were analyzed by western blotting. Representative Western blots and pooled quantitative densitometry analysis are shown from three independent cell line experiments (n = 3). […]; all by Student’s t tests.
. pThr183), caspase-3 and PARP cleavage, and BIM and actin were analyzed by western blotting. Representative Western blots (b) and pooled quantitative densitometry analysis (c) are shown from 3–6 independent culture dishes (n = 3–6). […]; all by Student’s t tests.
Human islets were isolated from eight pancreases of nondiabetic organ donors at PRODO Labs and at Lille University and cultured on extracellular matrix-coated dishes (Novamed, Jerusalem, Israel)[62] or on Biocoat Collagen I coated dishes (#356400, Corning, ME, USA). […] The clonal rat β-cell line INS-1E was kindly provided by Dr. Claes Wollheim, Geneva & Lund University. Human islets were cultured in complete CMRL-1066 (Invitrogen) medium at 5.5 mM glucose, mouse islets and INS-1E cells at complete RPMI-1640 medium at 11.1 mM glucose. […] . Palmitic acid (Sigma) was dissolved at 10 mmol/l in RPMI-1640 medium containing 11% fatty acid–free bovine serum albumin (BSA) (Sigma) under an N2-atmosphere and added to the culture at 0.5 mM[64]. […] . Isolated human islets or INS-1E cells were infected with adenovirus carrying LacZ as control or MST1 or LATS2 (all Vector Biolabs), at a multiplicity of infection of 100 (human islets) or 20 (INS-1E) for 4 h[11]. Adenovirus was subsequently washed off with PBS and replaced by fresh medium with 10% FBS and the respective analysis performed after 48 h post infection.

[4] = molecular target: MST2 (Homo sapiens, UniProt Q13188); experiment: Biochemical kinase dose response (Suppl. Fig. 2, 5); conditions: concentrations up to 10 μM
[5] = test system: MST1–LATS2 signaling; experiment: Western blot of YAP-S127 phosphorylation (MST1/LATS2 overexpression); conditions: 10 μM, last 24 h
[6] = test system: MST family members; parameters: method as in PMID 22037378; conditions: cited from earlier work
[7] = molecular target: T2, MST1 (Rattus norvegicus, UniProt A0A8I6A0F8); experiment: CETSA assay; type: cell-based; conditions: 5 μM, 2 h, INS-1E, 55 °C
T2 construct: endogenous in cells; host or cells: INS-1E (rat beta-cell line)
Description: Thereafter, cells were pelleted at 200 g for 4 min and resuspended in PBS supplemented with phosphatase and protease inhibitor cocktail at the cell density of 3 Mill./100 µl. Each cell suspension was distributed into five 0.2-ml PCR tubes with 100 µl of cell suspension per tube. PCR tubes were heated at their designated temperature (43–55 °C) on a thermal cycler for 3 min, incubated at room temperature for 3 min, and snap-frozen in liquid nitrogen. Cell lysates were prepared by freezing–thawing the samples in liquid nitrogen twice, and soluble MST1 was detected by western blot analysis.

[8] = test system: MST1–LATS2 signaling; experiment: LATS-BS in vitro luciferase assay (MST1/LATS2 overexpression)
Description: Therefore a LATS-BS construct has been generated with fusion of YAP fragment and 14-3-3 with N-terminal and C-terminal firefly luciferase fragments (N-luc and C-luc), respectively that assesses LATS kinase activity by measuring the interaction between pS127-YAP and 14-3-3[35] in a MST1–LATS2-phosphorylation-dependent manner (Fig. 4a).
As internal transfection control, pRL-Renilla luciferase control reporter vector (Promega) was co-transfected into each sample. […] Luciferase signal was calculated based on the ratio of luciferase activity of LATS-BS to control reporter vector.

[9] = test system: mouse model of liver and intestine injury; parameters: method as in PMID 27535619; conditions: cited from earlier work

Chain of MST2 (Q13188 whole entry, species assumed): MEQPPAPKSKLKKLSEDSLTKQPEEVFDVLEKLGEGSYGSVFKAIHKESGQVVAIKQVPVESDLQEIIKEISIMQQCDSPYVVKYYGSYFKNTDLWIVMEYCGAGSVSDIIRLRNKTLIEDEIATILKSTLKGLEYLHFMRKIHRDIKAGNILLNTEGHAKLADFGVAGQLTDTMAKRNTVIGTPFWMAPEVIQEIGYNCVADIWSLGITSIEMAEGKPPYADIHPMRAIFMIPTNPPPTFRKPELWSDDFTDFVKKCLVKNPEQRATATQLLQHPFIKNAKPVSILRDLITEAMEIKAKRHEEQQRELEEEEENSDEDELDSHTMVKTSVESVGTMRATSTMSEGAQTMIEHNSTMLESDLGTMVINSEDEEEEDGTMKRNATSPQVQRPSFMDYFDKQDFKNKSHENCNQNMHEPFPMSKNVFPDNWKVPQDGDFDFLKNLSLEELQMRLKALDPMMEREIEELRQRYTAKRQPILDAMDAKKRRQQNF
T2 sequence (A0A8I6A0F8 1-487): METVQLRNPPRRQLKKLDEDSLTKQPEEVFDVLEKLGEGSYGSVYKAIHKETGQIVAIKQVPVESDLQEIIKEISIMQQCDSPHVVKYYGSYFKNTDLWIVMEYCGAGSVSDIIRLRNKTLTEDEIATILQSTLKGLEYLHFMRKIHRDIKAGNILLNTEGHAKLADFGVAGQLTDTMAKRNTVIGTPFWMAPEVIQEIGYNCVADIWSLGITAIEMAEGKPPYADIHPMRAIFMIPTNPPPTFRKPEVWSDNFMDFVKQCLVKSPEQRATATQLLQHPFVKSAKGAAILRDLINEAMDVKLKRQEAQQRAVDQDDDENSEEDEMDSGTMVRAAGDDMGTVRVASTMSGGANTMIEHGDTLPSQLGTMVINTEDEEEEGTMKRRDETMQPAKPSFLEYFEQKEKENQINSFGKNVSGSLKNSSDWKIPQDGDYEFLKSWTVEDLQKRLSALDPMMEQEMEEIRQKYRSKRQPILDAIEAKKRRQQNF

Work on `CN[C@@H]1C[C@H]2O[C@@](C)([C@@H]1OC)n1c3ccccc3c3c4c(c5c6ccccc6n2c5c31)C(=O)NC4` [staurosporine] yielded an inhibition at 1 µM [1] of 100%.

In the case of `C=CC(=O)Nc1cc2c(Nc3ccc(F)c(Cl)c3)ncnc2cc1OCCCN1CCOCC1` [canertinib], the “inhibition of MST1” value [2] is reported as “no appreciable inhibition”, the “cleaved caspase-3, cleaved PARP, and BIM under basal conditions” value [3] is reported as “significant stimulatory effect” and the “mitochondrial BIM induction under diabetic conditions” value ([3]; HG/Pal) is reported as “but not the EGFR inhibitor canertinib significantly reduced”. For the same compound, the “stress-induced MST1 activation and caspase-3 and PARP cleavage” value ([3]; HG/Pal) was “ineffective”, the “inhibition of MST2” value [4] was “no appreciable inhibition” and the “MST1/LATS2-induced YAP-S127 phosphorylation” value [5] was “had no inhibitory effect”. For the same compound, the “activity on MST family members” value [6] was “without MST family inhibitory activity”, the “thermal stabilization of MST1 in intact cells” value [7] was “degradation occurred at the same condition” and the “MST1/LATS2-induced luciferase activity (LATS-BS)” value ([8]; 10 μM, last 24 h) was “had no inhibitory effect”. The “Firefly/Renilla x1000 (MEAN)” value ([8]; L2/Mst1 overexpression + 10 μM compound, mean of six dishes) was 27.5257.

In the case of `CN1C(=O)c2sccc2N(C)c2nc(Nc3ccc(S(N)(=O)=O)cc3)ncc21` [XMU-MP-1], the “effect in mouse model of liver and intestine injury” value [9] is given as “promotes tissue repair and regeneration”.
